From PubChem BioAssay AID2060882 (Molecular Pharmacology Branch, DTP, NCI, 2025)

Test system: 898857-211-R-J1-PDC complex spheroids, growth % test/control
Test: Anticancer human tumor 898857-211-R-J1-PDC patient-derived melanoma cell line growth inhibition [RAS]
Conditions: for IC50: curve of first compound; for viability, T/C: stronger effect = lower value
Procedure, shortened: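 Agents were tested in combination matrices in half-log decrements from a top concentration at or near clinical Cmax (10 microM if undetermined). Targets were multi-cell spheroids of tumour lines plus HUVEC and MSC stromal cells.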

[1] = second compound 0.00316 µM, first compound 0.0316 µM
[2] = second compound 0.00316 µM, first compound 0.1 µM
[3] = second compound 0.00316 µM, first compound 0.316 µM
[4] = second compound 0.00316 µM, first compound 1 µM
[5] = second compound 0.01 µM, first compound 0.0316 µM
[6] = second compound 0.01 µM, first compound 0.1 µM
[7] = second compound 0.01 µM, first compound 0.316 µM
[8] = second compound 0.01 µM, first compound 1 µM
[9] = second compound 0.0316 µM, first compound 0.0316 µM
[10] = second compound 0.0316 µM, first compound 0.1 µM
[11] = second compound 0.0316 µM, first compound 0.316 µM
[12] = second compound 0.0316 µM, first compound 1 µM
[13] = second compound 0.1 µM, first compound 0.0316 µM
[14] = second compound 0.1 µM, first compound 0.1 µM
[15] = second compound 0.1 µM, first compound 0.316 µM
[16] = second compound 0.1 µM, first compound 1 µM
[17] = second compound 0.316 µM, first compound 0.0316 µM
[18] = second compound 0.316 µM, first compound 0.1 µM
[19] = second compound 0.316 µM, first compound 0.316 µM
[20] = second compound 0.316 µM, first compound 1 µM
[21] = second compound 1 µM, first compound 0.0316 µM
[22] = second compound 1 µM, first compound 0.1 µM
[23] = second compound 1 µM, first compound 0.316 µM
[24] = second compound 1 µM, first compound 1 µM
[25] = second compound 0.00316 µM, first compound 3.16 µM
[26] = second compound 0.00316 µM, first compound 10 µM
[27] = second compound 0.01 µM, first compound 3.16 µM
[28] = second compound 0.01 µM, first compound 10 µM
[29] = second compound 0.0316 µM, first compound 3.16 µM
[30] = second compound 0.0316 µM, first compound 10 µM
[31] = second compound 0.1 µM, first compound 3.16 µM
[32] = second compound 0.1 µM, first compound 10 µM
[33] = second compound 0.316 µM, first compound 3.16 µM
[34] = second compound 0.316 µM, first compound 10 µM
[35] = second compound 1 µM, first compound 3.16 µM
[36] = second compound 1 µM, first compound 10 µM
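Also: spheroids exposed to compound for seven days before readout.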
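For viability, T/C in this document: 100% = DMSO vehicle control wells.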

## CCN1CCN(Cc2ccc(Nc3ncc(F)c(-c4cc(F)c5nc(C)n(C(C)C)c5c4)n3)nc2)CC1 + C=CC(=O)N1CCN(c2nc(OCC3CCCN3C)nc3c(F)c(-c4nc(N)cc(C)c4C(F)(F)F)c(Cl)cc23)C(C)C1
Second compound 0.00316 µM
  IC50: 0.366 µM
Second compound 0.01 µM
  IC50: 0.313 µM
Second compound 0.0316 µM
  IC50: 0.377 µM
Second compound 0.1 µM
  IC50: 0.49 µM
Second compound 0.316 µM
  IC50: > 1 µM
Second compound 1 µM
  IC50: 0.309 µM
Second compound 0.00316 µM, first compound 0.00316 µM
  viability, T/C: 106%
Second compound 0.00316 µM, first compound 0.01 µM
  viability, T/C: 106%
[1]
  viability, T/C: 95.4%
[2]
  viability, T/C: 72.2%
[3]
  viability, T/C: 52.4%
[4]
  viability, T/C: 41.2%
Second compound 0.01 µM, first compound 0.00316 µM
  viability, T/C: 101%
Second compound 0.01 µM, first compound 0.01 µM
  viability, T/C: 106%
[5]
  viability, T/C: 86.6%
[6]
  viability, T/C: 80.2%
[7]
  viability, T/C: 45.7%
[8]
  viability, T/C: 40.2%
Second compound 0.0316 µM, first compound 0.00316 µM
  viability, T/C: 121%
Second compound 0.0316 µM, first compound 0.01 µM
  viability, T/C: 102%
[9]
  viability, T/C: 83.4%
[10]
  viability, T/C: 77%
[11]
  viability, T/C: 45.6%
[12]
  viability, T/C: 39.2%
Second compound 0.1 µM, first compound 0.00316 µM
  viability, T/C: 118%
Second compound 0.1 µM, first compound 0.01 µM
  viability, T/C: 96.4%
[13]
  viability, T/C: 98.2%
[14]
  viability, T/C: 79.2%
[15]
  viability, T/C: 56.4%
[16]
  viability, T/C: 36.3%
Second compound 0.316 µM, first compound 0.00316 µM
  viability, T/C: 112%
Second compound 0.316 µM, first compound 0.01 µM
  viability, T/C: 117%
[17]
  viability, T/C: 91.8%
[18]
  viability, T/C: 64.8%
[19]
  viability, T/C: 59%
[20]
  viability, T/C: 50.9%
Second compound 1 µM, first compound 0.00316 µM
  viability, T/C: 122%
Second compound 1 µM, first compound 0.01 µM
  viability, T/C: 114%
[21]
  viability, T/C: 102%
[22]
  viability, T/C: 67.4%
[23]
  viability, T/C: 53.8%
[24]
  viability, T/C: 38%

## Cc1nc(N2CCC3(CC2)COC(C)C3N)c(CO)nc1Sc1ccnc(N)c1Cl (stereo unspecified) + C=CC(=O)N1CCN(c2nc(OCC3CCCN3C)nc3c(F)c(-c4nc(N)cc(C)c4C(F)(F)F)c(Cl)cc23)C(C)C1
Second compound 0.00316 µM
  IC50: > 10 µM
Second compound 0.01 µM
  IC50: > 10 µM
Second compound 0.0316 µM
  IC50: > 10 µM
Second compound 0.1 µM
  IC50: > 10 µM
Second compound 0.316 µM
  IC50: > 10 µM
Second compound 1 µM
  IC50: > 10 µM
[1]
  viability, T/C: 101%
[2]
  viability, T/C: 92.4%
[3]
  viability, T/C: 89%
[4]
  viability, T/C: 82.2%
[25]
  viability, T/C: 98.5%
[26]
  viability, T/C: 92.1%
[5]
  viability, T/C: 97.7%
[6]
  viability, T/C: 94.6%
[7]
  viability, T/C: 80.8%
[8]
  viability, T/C: 91%
[27]
  viability, T/C: 96.8%
[28]
  viability, T/C: 81.1%
[9]
  viability, T/C: 104%
[10]
  viability, T/C: 102%
[11]
  viability, T/C: 95.4%
[12]
  viability, T/C: 98.5%
[29]
  viability, T/C: 97.3%
[30]
  viability, T/C: 99.5%
[13]
  viability, T/C: 96.4%
[14]
  viability, T/C: 102%
[15]
  viability, T/C: 95.6%
[16]
  viability, T/C: 94%
[31]
  viability, T/C: 96.3%
[32]
  viability, T/C: 91.7%
[17]
  viability, T/C: 110%
[18]
  viability, T/C: 102%
[19]
  viability, T/C: 107%
[20]
  viability, T/C: 103%
[33]
  viability, T/C: 98.1%
[34]
  viability, T/C: 93.5%
[21]
  viability, T/C: 110%
[22]
  viability, T/C: 106%
[23]
  viability, T/C: 92.9%
[24]
  viability, T/C: 97.4%
[35]
  viability, T/C: 107%
[36]
  viability, T/C: 82.2%

## NC1c2ccccc2OC12CCN(c1cnc3c(N4CCCc5ncccc54)n[nH]c3n1)CC2 (stereo unspecified) + C=CC(=O)N1CCN(c2nc(OCC3CCCN3C)nc3c(F)c(-c4nc(N)cc(C)c4C(F)(F)F)c(Cl)cc23)C(C)C1
Second compound 0.00316 µM
  IC50: > 10 µM
Second compound 0.01 µM
  IC50: > 10 µM
Second compound 0.0316 µM
  IC50: > 10 µM
Second compound 0.1 µM
  IC50: > 10 µM
Second compound 0.316 µM
  IC50: > 10 µM
Second compound 1 µM
  IC50: > 10 µM
[1]
  viability, T/C: 92.5%
[2]
  viability, T/C: 98%
[3]
  viability, T/C: 92.8%
[4]
  viability, T/C: 89.2%
[25]
  viability, T/C: 79.9%
[26]
  viability, T/C: 75%
[5]
  viability, T/C: 94.9%
[6]
  viability, T/C: 85.9%
[7]
  viability, T/C: 87.2%
[8]
  viability, T/C: 83.3%
[27]
  viability, T/C: 81.6%
[28]
  viability, T/C: 78.6%
[9]
  viability, T/C: 88.3%
[10]
  viability, T/C: 85.8%
[11]
  viability, T/C: 88.2%
[12]
  viability, T/C: 86.2%
[29]
  viability, T/C: 87.3%
[30]
  viability, T/C: 71.8%
[13]
  viability, T/C: 98.6%
[14]
  viability, T/C: 89.8%
[15]
  viability, T/C: 97.3%
[16]
  viability, T/C: 99.5%
[31]
  viability, T/C: 103%
[32]
  viability, T/C: 74.1%
[17]
  viability, T/C: 112%
[18]
  viability, T/C: 103%
[19]
  viability, T/C: 101%
[20]
  viability, T/C: 107%
[33]
  viability, T/C: 102%
[34]
  viability, T/C: 76%
[21]
  viability, T/C: 116%
[22]
  viability, T/C: 93.6%
[23]
  viability, T/C: 108%
[24]
  viability, T/C: 94.2%
[35]
  viability, T/C: 87.3%
[36]
  viability, T/C: 58%
